Results taken from ChEMBL document CHEMBL5244205, “Discovery of tricyclic dipyrrolopyridine derivatives as novel JAK inhibitors” (Bioorg Med Chem, 2017).

What was measured:
[1] = target: Casein kinase I isoform delta (Homo sapiens, UniProt P48730); assay: Inhibition of CHKdelta (unknown origin)
[2] = Half life in Sprague-Dawley rat at 1 mg/kg, iv measured up to 24 hrs by LC-MS/MS analysis; type: ADME, organism-based; conditions: in vivo
[3] = Inhibition of SYK (unknown origin); parameters: species or system Homo sapiens
[4] = target: Tyrosine-protein kinase ITK/TSK (Homo sapiens, UniProt Q08881); assay: Inhibition of ITK (unknown origin)
[5] = target: Angiopoietin-1 receptor (Homo sapiens, UniProt Q02763); assay: Inhibition of TIE2 (unknown origin)
[6] = target: Insulin-like growth factor 1 receptor (Homo sapiens, UniProt P08069); assay: Inhibition of IGF1R (unknown origin)
Chain of Insulin-like growth factor 1 receptor (P08069 31-736 limits assumed): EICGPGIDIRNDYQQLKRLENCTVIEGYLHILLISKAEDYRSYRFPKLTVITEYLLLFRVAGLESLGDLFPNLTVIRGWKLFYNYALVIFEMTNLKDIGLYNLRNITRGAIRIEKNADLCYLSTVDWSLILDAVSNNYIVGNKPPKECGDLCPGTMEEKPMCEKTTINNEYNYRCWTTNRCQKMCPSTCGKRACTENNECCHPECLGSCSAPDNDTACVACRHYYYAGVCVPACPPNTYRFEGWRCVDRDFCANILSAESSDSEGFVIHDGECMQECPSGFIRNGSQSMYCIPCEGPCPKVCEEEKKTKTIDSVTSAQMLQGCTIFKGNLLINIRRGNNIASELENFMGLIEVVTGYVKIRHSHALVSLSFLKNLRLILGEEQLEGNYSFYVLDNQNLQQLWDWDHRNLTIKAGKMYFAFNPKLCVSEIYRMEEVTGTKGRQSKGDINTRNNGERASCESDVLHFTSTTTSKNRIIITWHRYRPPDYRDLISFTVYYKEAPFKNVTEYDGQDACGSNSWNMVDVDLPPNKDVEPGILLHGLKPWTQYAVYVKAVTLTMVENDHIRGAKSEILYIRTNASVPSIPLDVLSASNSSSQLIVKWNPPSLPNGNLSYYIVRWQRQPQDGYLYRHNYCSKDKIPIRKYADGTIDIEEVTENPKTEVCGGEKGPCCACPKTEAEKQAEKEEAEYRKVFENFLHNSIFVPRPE
Chain of Insulin-like growth factor 1 receptor (P08069 741-1367 limits assumed): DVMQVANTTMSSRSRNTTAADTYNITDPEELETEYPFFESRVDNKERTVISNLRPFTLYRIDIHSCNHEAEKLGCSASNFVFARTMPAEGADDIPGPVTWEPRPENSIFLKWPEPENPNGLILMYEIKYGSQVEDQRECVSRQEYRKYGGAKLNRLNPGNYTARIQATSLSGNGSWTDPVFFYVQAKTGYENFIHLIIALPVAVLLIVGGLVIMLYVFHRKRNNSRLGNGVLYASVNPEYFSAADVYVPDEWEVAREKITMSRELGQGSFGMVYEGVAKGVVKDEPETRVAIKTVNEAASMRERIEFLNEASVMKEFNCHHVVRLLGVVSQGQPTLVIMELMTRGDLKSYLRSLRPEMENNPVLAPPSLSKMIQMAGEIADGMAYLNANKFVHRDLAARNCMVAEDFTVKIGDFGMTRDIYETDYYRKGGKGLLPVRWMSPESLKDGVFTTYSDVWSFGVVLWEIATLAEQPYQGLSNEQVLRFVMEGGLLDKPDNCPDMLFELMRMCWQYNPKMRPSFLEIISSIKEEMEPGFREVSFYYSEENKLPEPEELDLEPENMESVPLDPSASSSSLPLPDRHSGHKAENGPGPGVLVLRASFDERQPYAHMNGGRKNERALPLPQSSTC

[7] = target: Focal adhesion kinase 1 (Homo sapiens, UniProt Q05397); assay: Inhibition of FAK (unknown origin)
[8] = Oral availability in Sprague-Dawley rat at 1 mg/kg measured up to 24 hrs by LC-MS/MS analysis; type: ADME, organism-based; conditions: in vivo
[9] = Clearance in Sprague-Dawley rat at 1 mg/kg, iv measured up to 24 hrs by LC-MS/MS analysis; type: ADME, organism-based; conditions: in vivo
[10] = target: Tyrosine-protein kinase BTK (Homo sapiens, UniProt Q06187); assay: Inhibition of BTK (unknown origin)
[11] = pampa, pH 6.5, 2 h
Description: Permeability of the compound in pH 6.5 incubated for 2 hrs by PAMPA based HPLC analysis

[12] = Cmax in Sprague-Dawley rat at 1 mg/kg, po measured up to 24 hrs by LC-MS/MS analysis; type: ADME, organism-based; parameters: time < 24 hrs, dose 1 mg/kg, route po; conditions: in vivo
[13] = target: Tyrosine-protein kinase CSK (Homo sapiens, UniProt P41240); assay: Inhibition of CSK (unknown origin)
[14] = target: Tyrosine-protein kinase ABL1 (Homo sapiens, UniProt P00519); assay: Inhibition of ABL (unknown origin)
[15] = target: Cytochrome P450 3A4 (Homo sapiens, UniProt P08684); conditions: microsomes, 20 min, 5 µM
Chain of Cytochrome P450 3A4 (P08684 whole entry): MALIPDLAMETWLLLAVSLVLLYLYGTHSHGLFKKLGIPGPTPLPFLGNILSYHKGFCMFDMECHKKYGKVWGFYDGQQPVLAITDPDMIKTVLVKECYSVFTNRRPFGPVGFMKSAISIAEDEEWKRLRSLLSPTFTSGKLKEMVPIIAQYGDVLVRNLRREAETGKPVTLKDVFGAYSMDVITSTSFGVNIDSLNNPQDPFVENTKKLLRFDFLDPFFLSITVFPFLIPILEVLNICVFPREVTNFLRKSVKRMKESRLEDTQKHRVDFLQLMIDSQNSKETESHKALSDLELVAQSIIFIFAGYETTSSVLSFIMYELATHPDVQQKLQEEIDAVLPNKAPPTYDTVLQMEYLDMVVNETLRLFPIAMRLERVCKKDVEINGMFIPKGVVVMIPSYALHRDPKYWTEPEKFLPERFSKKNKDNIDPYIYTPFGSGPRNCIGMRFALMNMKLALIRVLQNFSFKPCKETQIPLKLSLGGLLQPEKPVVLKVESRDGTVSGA

[16] = Volume of distribution in Sprague-Dawley rat at 1 mg/kg, iv measured up to 24 hrs by LC-MS/MS analysis; type: ADME, organism-based; conditions: in vivo
[17] = Half life in Sprague-Dawley rat at 1 mg/kg, po measured up to 24 hrs by LC-MS/MS analysis; type: ADME, organism-based; conditions: in vivo
[18] = target: Inhibitor of nuclear factor kappa-B kinase subunit beta (Homo sapiens, UniProt O14920); assay: Inhibition of IKKB (unknown origin)
[19] = target: RAF proto-oncogene serine/threonine-protein kinase (Homo sapiens, UniProt P04049); assay: Inhibition of RAF1 (unknown origin)
[20] = target: Mitogen-activated protein kinase 11 (Homo sapiens, UniProt Q15759); assay: Inhibition of P38beta (unknown origin)
[21] = target: Tyrosine-protein kinase ZAP-70 (Homo sapiens, UniProt P43403); assay: Inhibition of ZAP70 (unknown origin)
Chain of Tyrosine-protein kinase ZAP-70 (P43403 whole entry): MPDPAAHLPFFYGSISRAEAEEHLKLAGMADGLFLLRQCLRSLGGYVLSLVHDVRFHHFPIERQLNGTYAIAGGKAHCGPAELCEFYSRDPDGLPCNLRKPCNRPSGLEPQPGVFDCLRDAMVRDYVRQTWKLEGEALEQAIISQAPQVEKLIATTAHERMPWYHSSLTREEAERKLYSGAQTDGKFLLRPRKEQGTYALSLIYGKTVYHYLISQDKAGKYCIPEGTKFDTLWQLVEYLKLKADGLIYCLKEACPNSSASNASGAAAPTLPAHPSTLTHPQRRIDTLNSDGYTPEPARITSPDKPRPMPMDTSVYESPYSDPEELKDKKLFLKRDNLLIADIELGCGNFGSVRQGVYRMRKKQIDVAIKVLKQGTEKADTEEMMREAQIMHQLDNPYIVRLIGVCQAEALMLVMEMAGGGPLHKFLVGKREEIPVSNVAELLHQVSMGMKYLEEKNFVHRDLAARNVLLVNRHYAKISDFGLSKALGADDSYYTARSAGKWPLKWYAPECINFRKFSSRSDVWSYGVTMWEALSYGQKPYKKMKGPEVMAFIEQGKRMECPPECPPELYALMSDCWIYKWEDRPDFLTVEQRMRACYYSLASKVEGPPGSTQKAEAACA

[22] = AUC (0 to 24 hrs) in Sprague-Dawley rat at 1 mg/kg, iv measured up to 24 hrs by LC-MS/MS analysis; type: ADME, organism-based; parameters: dose 1 mg/kg, time < 24 hrs, route iv; conditions: in vivo
[23] = target: Ephrin type-A receptor 2 (Homo sapiens, UniProt P29317); assay: Inhibition of EphA2 (unknown origin)
[24] = target: Bone morphogenetic protein receptor type-1A (Homo sapiens, UniProt P36894); assay: Inhibition of BMPR1A (unknown origin)
[25] = target: MAP kinase-activated protein kinase 2 (Homo sapiens, UniProt P49137); assay: Inhibition of MAPKAPK2 (unknown origin)
Chain of MAP kinase-activated protein kinase 2 (P49137 whole entry): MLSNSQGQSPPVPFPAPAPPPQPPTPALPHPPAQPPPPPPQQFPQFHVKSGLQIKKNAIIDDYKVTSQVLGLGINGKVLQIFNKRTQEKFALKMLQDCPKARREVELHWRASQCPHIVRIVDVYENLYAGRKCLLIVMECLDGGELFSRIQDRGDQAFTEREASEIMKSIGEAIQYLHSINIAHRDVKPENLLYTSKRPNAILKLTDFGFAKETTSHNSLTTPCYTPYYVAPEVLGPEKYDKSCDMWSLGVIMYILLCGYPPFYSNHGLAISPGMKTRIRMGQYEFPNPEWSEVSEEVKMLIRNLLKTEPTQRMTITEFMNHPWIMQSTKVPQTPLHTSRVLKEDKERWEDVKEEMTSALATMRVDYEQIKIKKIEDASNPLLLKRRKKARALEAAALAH

[26] = AUC (0 to 24 hrs) in Sprague-Dawley rat at 1 mg/kg, po measured up to 24 hrs by LC-MS/MS analysis; type: ADME, organism-based; parameters: dose 1 mg/kg, time < 24 hrs, route po; conditions: in vivo
[27] = Tmax in Sprague-Dawley rat at 1 mg/kg, po measured up to 24 hrs by LC-MS/MS analysis; type: ADME, organism-based; conditions: in vivo
[28] = target: Mitogen-activated protein kinase kinase kinase 1 (Homo sapiens, UniProt Q13233); assay: Inhibition of MAP3K1 (unknown origin)
Chain of Mitogen-activated protein kinase kinase kinase 1 (Q13233 whole entry): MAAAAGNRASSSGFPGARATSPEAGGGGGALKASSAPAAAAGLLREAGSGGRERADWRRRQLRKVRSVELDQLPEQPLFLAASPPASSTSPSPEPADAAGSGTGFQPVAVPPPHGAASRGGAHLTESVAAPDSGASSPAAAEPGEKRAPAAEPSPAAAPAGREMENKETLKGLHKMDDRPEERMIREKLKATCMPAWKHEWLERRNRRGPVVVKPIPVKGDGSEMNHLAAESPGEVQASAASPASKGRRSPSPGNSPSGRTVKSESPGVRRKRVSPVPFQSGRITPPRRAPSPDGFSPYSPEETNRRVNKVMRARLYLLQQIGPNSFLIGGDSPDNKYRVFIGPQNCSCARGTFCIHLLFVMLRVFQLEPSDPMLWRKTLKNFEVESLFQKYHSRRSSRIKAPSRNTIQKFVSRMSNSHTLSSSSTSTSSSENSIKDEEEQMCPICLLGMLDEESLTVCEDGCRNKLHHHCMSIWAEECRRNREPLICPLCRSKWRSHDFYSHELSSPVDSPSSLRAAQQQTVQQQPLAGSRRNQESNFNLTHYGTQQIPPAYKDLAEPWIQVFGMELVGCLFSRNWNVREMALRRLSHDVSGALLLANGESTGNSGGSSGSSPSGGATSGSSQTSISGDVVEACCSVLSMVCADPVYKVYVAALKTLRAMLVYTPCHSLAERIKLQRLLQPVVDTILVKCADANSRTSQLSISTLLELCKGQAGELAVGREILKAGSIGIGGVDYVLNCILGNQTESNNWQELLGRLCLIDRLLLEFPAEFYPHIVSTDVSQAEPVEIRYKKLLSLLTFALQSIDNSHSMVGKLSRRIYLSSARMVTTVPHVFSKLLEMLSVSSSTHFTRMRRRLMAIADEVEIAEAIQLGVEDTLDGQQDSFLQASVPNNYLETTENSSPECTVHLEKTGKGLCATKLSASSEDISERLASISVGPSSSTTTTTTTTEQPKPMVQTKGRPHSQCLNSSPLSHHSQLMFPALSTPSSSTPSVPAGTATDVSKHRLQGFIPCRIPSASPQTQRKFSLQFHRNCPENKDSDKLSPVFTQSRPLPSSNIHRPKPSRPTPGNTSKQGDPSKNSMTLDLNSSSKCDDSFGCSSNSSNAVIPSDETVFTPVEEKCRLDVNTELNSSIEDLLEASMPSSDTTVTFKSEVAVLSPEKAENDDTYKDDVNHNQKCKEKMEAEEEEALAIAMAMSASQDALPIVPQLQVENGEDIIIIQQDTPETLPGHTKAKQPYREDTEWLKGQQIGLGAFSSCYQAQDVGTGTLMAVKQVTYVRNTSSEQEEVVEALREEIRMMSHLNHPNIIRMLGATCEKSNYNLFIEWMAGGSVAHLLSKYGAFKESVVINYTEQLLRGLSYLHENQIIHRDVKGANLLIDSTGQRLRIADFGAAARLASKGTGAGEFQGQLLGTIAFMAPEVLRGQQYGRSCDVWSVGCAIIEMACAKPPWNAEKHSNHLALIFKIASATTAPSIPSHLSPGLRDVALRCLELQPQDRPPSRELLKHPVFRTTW

[29] = target: Epidermal growth factor receptor (Homo sapiens, UniProt P00533); assay: Inhibition of EGFR (unknown origin)

Chain of Casein kinase I isoform delta (P48730 whole entry, canonical isoform): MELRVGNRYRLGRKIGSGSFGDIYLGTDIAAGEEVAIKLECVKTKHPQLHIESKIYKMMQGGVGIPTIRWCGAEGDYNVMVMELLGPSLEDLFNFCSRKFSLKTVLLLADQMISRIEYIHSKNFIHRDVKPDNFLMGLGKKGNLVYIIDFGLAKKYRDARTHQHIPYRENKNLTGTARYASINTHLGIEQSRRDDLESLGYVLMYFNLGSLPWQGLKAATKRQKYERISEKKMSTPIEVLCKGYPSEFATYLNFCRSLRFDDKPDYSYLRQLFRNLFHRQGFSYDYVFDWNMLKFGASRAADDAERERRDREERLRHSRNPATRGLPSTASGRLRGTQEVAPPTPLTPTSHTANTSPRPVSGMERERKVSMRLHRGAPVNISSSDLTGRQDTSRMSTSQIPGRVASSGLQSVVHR

C[C@@H]1CCN(C(=O)CC#N)C[C@@H]1n1ccc2cnc3[nH]cc(C#N)c3c21
IC50 [1]: > 1000 nM
half-life [2]: 7.86 h
IC50 [3]: > 1000 nM
IC50 [4]: > 1000 nM
IC50 [5]: > 1000 nM
IC50 [6]: > 1000 nM
IC50 [7]: > 1000 nM
bioavailability [8]: 82.4%
clearance [9]: 20.2 mL/min/kg
IC50 [10]: > 1000 nM
permeability [11]: 14 10^-6 cm/s
Cmax [12]: 178 ng/mL
IC50 [13]: > 1000 nM
IC50 [14]: > 1000 nM
TDI [15]: 93%
Vd [16]: 0.97 L/kg
half-life [17]: 3.99 h
IC50 [18]: > 1000 nM
IC50 [19]: > 1000 nM
IC50 [20]: > 1000 nM
IC50 [21]: > 1000 nM
AUC(0-t) at 24 h [22]: 1110 ng·h/mL
IC50 [23]: > 1000 nM
IC50 [24]: > 1000 nM
IC50 [25]: > 1000 nM
AUC(0-t) at 24 h [26]: 916 ng·h/mL
Tmax [27]: 0.33 h
IC50 [28]: > 1000 nM
IC50 [29]: > 1000 nM
